Test results: patent US20090118331A1, “Use of Lobeline Epimers in the Treatment of Central Nervous System Diseases, Pathologies, and Drug Abuse” (priority 2007, published 2009)

Legend:
[1] = Lobeline epimerization in pH 7.4 phosphate buffer control; conditions: after 2 hours, with impurity
Experimental: In order to determine the tendency of lobeline to undergo epimerization in the HEPES buffer employed in the 25° C. [^3H]DTBZ binding study and the 37° C. VMAT2 uptake studies previously described, analogous solution epimerization experiments were conducted using the corresponding conditions for each individual assay. […] As this dynamic phenomenon occurs, the ratio of lobeline to lobeline epimer in solution naturally changes over time. Further, depending upon the solution conditions, the rate and extent of epimerization may vary; thus, a ratio of lobeline to epimer, if achieved, may occur at various time points. After 2 hours, the 25° C. […] The epimerization of lobeline in the 37° C.

[2] = in vivo; conditions: for AUC(0-inf) / AUC(0-t) / Cmax / MRT last / Tmax / Vd / clearance / half-life: rat, in vivo
Experimental: Here, serial doses of lobeline were administered to male and female rats intravenously, subcutaneously or orally, and the pharmacokinetic profiles of the parent lobeline and its epimer were monitored in plasma.

[3] = Lobeline conversion to epimer in deionized water (HPLC); assay type: physicochemical
Experimental: Extensive in vitro studies on the epimerization of lobeline were conducted in a variety of aqueous media. […] The concentration of the lobeline solution (500 mL) was ca. 0.5 mg/mL, and 1.5 mL aliquot parts were removed in triplicate at each time point and analyzed by HPLC. Corresponding pH measurements were performed with a Coming Model 240 pH meter.

[4] = Lobeline conversion to epimer in the HEPES buffer system used at 25° C. in the [^3H]DTBZ binding study (HPLC); assay type: physicochemical; conditions: HEPES [^3H]DTBZ binding buffer, after 2 hours at 25° C.
Experimental: The initial dissolution of lobeline in water was followed by a 1:1 dilution of this stock solution in the appropriate HEPES buffer system, incubation at the prescribed temperature, and HPLC assay of each epimer and potential degradants over 2 hour incubation.
After 2 hours, the 25° C.

For CN1[C@@H](CC(=O)c2ccccc2)CCC[C@H]1C[C@H](O)c1ccccc1 [Lobeline, 2-[6S-(2S-hydroxy-2-phenyl-ethyl)-1-methyl-piperidin-2R-yl]-1-phenyl-ethanone], the “component content of solution” value ([1]; pH 7.4 phosphate buffer control, same temperature as 25° C. binding buffer) was 64%, the “component content of solution” value ([1]; phosphate buffer control for the 37° C. VMAT2 uptake buffer) was 62% and the AUC(0-inf) ([2]; female, iv, 2 mg/kg) was 134 ng·h/mL. It also gave an AUC(0-t) ([2]; female, iv, 2 mg/kg) of 133 ng·h/mL, a Cmax ([2]; female, iv, 2 mg/kg) of 106 ng/mL and an MRT last ([2]; female, iv, 2 mg/kg) of 1.72 h. It also gave a Tmax ([2]; female, iv, 2 mg/kg) of 0.083 h, a Vd ([2]; female, iv, 2 mg/kg) of 27.2 L/kg and a clearance ([2]; female, iv, 2 mg/kg) of 0.248 mL/min/kg. The half-life ([2]; female, iv, 2 mg/kg) was 1.85 h, the AUC(0-inf) ([2]; female, po, 20 mg/kg) was 64.5 ng·h/mL and the AUC(0-t) ([2]; female, po, 20 mg/kg) was 62.7 ng·h/mL. It also gave a Cmax ([2]; female, po, 20 mg/kg) of 42.5 ng/mL, an MRT last ([2]; female, po, 20 mg/kg) of 1.92 h and a Tmax ([2]; female, po, 20 mg/kg) of 0.5 h. For the same compound, the half-life ([2]; female, po, 20 mg/kg) was 2.29 h, the AUC(0-inf) ([2]; female, sc, 3 mg/kg) was 193 ng·h/mL and the AUC(0-t) ([2]; female, sc, 3 mg/kg) was 191 ng·h/mL. It also gave a Cmax ([2]; female, sc, 3 mg/kg) of 142 ng/mL, an MRT last ([2]; female, sc, 3 mg/kg) of 1.42 h and a Tmax ([2]; female, sc, 3 mg/kg) of 0.25 h. For the same compound, the half-life ([2]; female, sc, 3 mg/kg) was 1.14 h, the AUC(0-inf) ([2]; male, iv, 2 mg/kg) was 135 ng·h/mL and the AUC(0-t) ([2]; male, iv, 2 mg/kg) was 134 ng·h/mL. It also gave a Cmax ([2]; male, iv, 2 mg/kg) of 144 ng/mL, an MRT last ([2]; male, iv, 2 mg/kg) of 1.54 h and a Tmax ([2]; male, iv, 2 mg/kg) of 0.083 h. The Vd ([2]; male, iv, 2 mg/kg) was 23.8 L/kg, the clearance ([2]; male, iv, 2 mg/kg) was 0.247 mL/min/kg and the half-life ([2]; male, iv, 2 mg/kg) was 1.68 h. The AUC(0-inf) ([2]; male, po, 20 mg/kg) was 105 ng·h/mL, the AUC(0-t) ([2]; male, po, 20 mg/kg) was 104 ng·h/mL and the Cmax ([2]; male, po, 20 mg/kg) was 91.2 ng/mL. The MRT last ([2]; male, po, 20 mg/kg) was 1.88 h, the Tmax ([2]; male, po, 20 mg/kg) was 0.5 h and the half-life ([2]; male, po, 20 mg/kg) was 1.97 h. The AUC(0-inf) ([2]; male, sc, 3 mg/kg) was 191 ng·h/mL, the AUC(0-t) ([2]; male, sc, 3 mg/kg) was 190 ng·h/mL and the Cmax ([2]; male, sc, 3 mg/kg) was 162 ng/mL. The MRT last ([2]; male, sc, 3 mg/kg) was 1.35 h, the Tmax ([2]; male, sc, 3 mg/kg) was 0.083 h and the half-life ([2]; male, sc, 3 mg/kg) was 1.18 h. For the same compound, the “ratio of lobeline to epimer in plasma (comparison of AUC; x to 1)” value ([2]; rats, depending on sex and route of administration) was 1.5-2, the “systemic absorption of lobeline, followed by subsequent epimerization, when given orally” value ([2]; rats, females compared to males) was “significantly reduced in females as compared to males” and the “% Lobeline (Mean ± SD)” value ([3]; Solution 1 (Lobeline in “fresh” DI Water), time 0, pH 6.02) was 99.16%. The “% Lobeline (Mean ± SD)” value ([3]; Solution 1 (“fresh” DI Water), 15 min, pH 6.03-6.24) was 99.17 ± 0.053%, the “% Lobeline (Mean ± SD)” value ([3]; Solution 1 (“fresh” DI Water), 30 min, pH 6.02-6.24) was 99.01 ± 0.162% and the “% Lobeline (Mean ± SD)” value ([3]; Solution 1 (“fresh” DI Water), 45 min, pH 6.13-6.37) was 99.06 ± 0.146%. The “% Lobeline (Mean ± SD)” value ([3]; Solution 1 (“fresh” DI Water), 1 h, pH 6.26-6.52) was 99.00 ± 0.195%, the “% Lobeline (Mean ± SD)” value ([3]; Solution 1 (“fresh” DI Water), 80 min, pH 6.19-6.50) was 98.54 ± 0.112% and the “% Lobeline (Mean ± SD)” value ([3]; Solution 1 (“fresh” DI Water), 100 min, pH 6.16-6.50) was 98.50 ± 0.139%. For the same compound, the “% Lobeline (Mean ± SD)” value ([3]; Solution 1 (“fresh” DI Water), 2 h, pH 5.63-5.88) was 98.42 ± 0.601%, the “% Lobeline (Mean ± SD)” value ([3]; Solution 2 (Lobeline in “8-h” DI Water), time 0, pH 7.87) was 98.97% and the “% Lobeline (Mean ± SD)” value ([3]; Solution 2 (“8-h” DI Water), 15 min, pH 7.78-8.21) was 99.34 ± 0.274%. For the same compound, the “% Lobeline (Mean ± SD)” value ([3]; Solution 2 (“8-h” DI Water), 30 min, pH 7.58-7.85) was 99.49 ± 0.215%, the “% Lobeline (Mean ± SD)” value ([3]; Solution 2 (“8-h” DI Water), 45 min, pH 7.66-7.68) was 99.35 ± 0.056% and the “% Lobeline (Mean ± SD)” value ([3]; Solution 2 (“8-h” DI Water), 1 h, pH 6.84-7.11) was 99.20 ± 0.085%. For the same compound, the “% Lobeline (Mean ± SD)” value ([3]; Solution 2 (“8-h” DI Water), 80 min, pH 6.53-6.79) was 99.11 ± 0.150%, the “% Lobeline (Mean ± SD)” value ([3]; Solution 2 (“8-h” DI Water), 100 min, pH 6.24-6.51) was 98.99 ± 0.206% and the “% Lobeline (Mean ± SD)” value ([3]; Solution 2 (“8-h” DI Water), 2 h, pH 6.21-6.49) was 98.78 ± 0.258%. The “conversion of lobeline to lobeline epimer” value ([3]; fresh deionized water or water allowed to absorb atmospheric carbon dioxide for up to 8 hours, 2 hour time course) was “ca. 1%” and the “final component concentration (as a function of the area under the curve)” value [4] was 83%.
